Laboratory results taken from patent US5244795A, “Processes for preparing cholesterol lowering compounds” (Merck & Co., Inc., priority 1992, dated 1993).

Columns and labels:
Test in all cases: FISP disc diffusion assay
Assay type in all cases: cell-based
Design in all cases: key: F: clear zone, fuzzy edges; S: slightly hazy zone (some growth observed throughout zone); H: hazy zone (considerable growth observed throughout zone); V: very hazy zone (zone of inhibition is barely discernable); R: zone displays a ring of resistant growth; no qualifier: clear zone throughout, sharp edges
Conditions in all cases: 250 μg/ml in CH2Cl2
[1] = system: Alternaria solani
Description: (§1) The FISP assay employs disc diffusion susceptibility testing methods to generate a spectrum of activity against a panel of representative yeasts, filamentous fungi and bacteria.
(§2) The filamentous fungi used in the assay were Penicillium sp. Aspergillus niger, Trichoderma sp., Phoma sp., Trichoderma lignorum, Fusarium oxysporum, Ustilago maydis, Ceratocystis ulmi, Alternaria soloni, Verticillium serrae, Botrytis allii, Scopulariopsis communis, Cephalosporium sp., Cercospora beticola, Rhizomucor miehei, Aspergillus flavus and Aspergillus fumigatus.
(§3) For carrying out the assay, seeded assay plates are prepared in the following manner according to the type of assay strain.
(§4) Inocula for filamentous fungi are prepared by scraping the surface of stock plates maintained on potato dextrose agar with a moistened sterile dacron swab. The spores and mycelia are then suspended in 10 milliliters of sterile potato dextrose broth and adjusted to 65 percent transmission at 660 nm.
(§5) Assay plates for the yeasts and filamentous fungi are prepared by diluting the inoculum into appropriate molten agar medium, cooled to 45° C. to obtain a final concentration of 4 percent.
(§6) The seeded agar media thus prepared are dispensed into petri dishes for assays (11 ml per dish).
(§7) The samples to be tested for production of antifungal agent are applied to 6.2 mm filter paper discs (25 μl/disc) and air dried at 24° C. When the sample to be tested is crude broth, it may be centrifuged prior to application. The discs bearing the material to be tested are then applied employing sterile conditions to the seeded assay plates. The assay plates are then incubated at either 28° C. or 37° C. for 24 hours. In one of the assays for Bacillus subtilis, the sample is applied to a disc previously impregnated with 4M potassium chloride at 25 μl/disc and then air dried.
(§8) Following incubation, the inhibition zones are measured and recorded. The measurements are made from the extreme edge where growth differs from the background zone. The zones are noted as to appearance as fuzzy edge and clear center, hazy throughout, slightly hazy, very hazy or ringed.
(§9) FISP data is reported as the diameter (in mm.) of the zone of inhibition of growth in agar diffusion assays. The zone is determined by measuring growth that differs from the background lawn. A qualifier is also added to describe the zone quality as listed below: no qualifier: clear zone throughout, sharp edges

[2] = system: Aspergillus fumigatus
Description: as §1, §2, §3, §4, §5, §6, §7, §8, §9

[3] = system: Botrytis allii
Description: as §1, §2, §3, §4, §5, §6, §7, §8, §9

[4] = system: Cephalosporium sp.
Description: as §1, §2, §3, §4, §5, §6, §7, §8, §9

[5] = system: Ceratocystis ulmi
Description: as §1, §2, §3, §4, §5, §6, §7, §8, §9

[6] = system: Cercospora beticola
Description: as §1, §2, §3, §4, §5, §6, §7, §8, §9

[7] = system: Fusarium oxysporum
Description: as §1, §2, §3, §4, §5, §6, §7, §8, §9

[8] = system: Penicillium sp.
Description: as §1, §2, §3, §4, §5, §6, §7, §8, §9

[9] = system: Phoma sp.
Description: as §1, §2, §3, §4, §5, §6, §7, §8, §9

[10] = system: Scopulariopsis communis
Description: as §1, §2, §3, §4, §5, §6, §7, §8, §9

[11] = system: Ustilago maydis
Description: as §1, §2, §3, §4, §5, §6, §7, §8, §9

[12] = system: Verticillium serrae
Description: as §1, §2, §3, §4, §5, §6, §7, §8, §9

Measured: zone quality qualifier

CC(/C=C/C=C(\C)C(O)C(C)C(=O)O[C@H]1C[C@H](C)C=C2C=C[C@@]3(C)O[C@@H](O)CC(=O)[C@]3(C)[C@H]21)=C\C=C\C(=O)O (stereo partly drawn) [Compound A]
F: [1] | [4] | [10]
V: [5] | [11]
H: [8]
S: all other assays above
